Data from paper PMC6216040, “Repurposing of an old drug: In vitro and in vivo efficacies of buparvaquone against Echinococcus multilocularis” (International Journal for Parasitology: Drugs and Drug …, 2018).

System: E. multilocularis metacestodes
Test: PGI-assay: drug-induced damage on in vitro cultured metacestodes (Pathogen Box screening cascade and EC50)
Assay type: cell-based, Echinococcus multilocularis
Conditions: for PGI release, % of the Tx-100 control, 5d / PGI release, % of the Tx-100 control, 12d: 10 µM, singlets; for PGI release, % of the Tx-100 control, 5d / PGI release, % of Tx-100 control, average, 5d: 5 days of incubation; for PGI release, % of the Tx-100 control, 12d / PGI release, % of Tx-100 control, average, 12d: 12 days of incubation
[1] = confirmatory screening at 10 µM in triplicates, values as % of Tx-100 control

| SMILES | PGI release, % of the Tx-100 control, 5d [%] | PGI release, % of the Tx-100 control, 12d [%] | other results |
| --- | --- | --- | --- |
| COc1ccc(OC(C)C(=O)Nc2ccc(Cl)cc2C)cc1 (stereo not shown) [MMV202458] | 0.0146 | 6.22 |  |
| CCC(=O)Nc1ccccc1C(=O)Nc1ccccn1 [MMV202553] | -0.91 | 0.26 |  |
| COc1cccc(NC(=O)c2c(NC(=O)c3cccnc3)sc3c2CCC3)c1 [MMV228911] | 6.25 | 18.91 |  |
| COc1cccc(-n2nnnc2S(C)(=O)=O)c1 [MMV272144] | -0.69 | 0.11 |  |
| COc1cccc(-c2cc3c(Nc4cccnc4)nccc3[nH]2)c1 [MMV392832] | 0.24 | -1.65 |  |
| CN1CCN(c2nccc3[nH]c(-c4cccc(F)c4)cc23)CC1 [MMV393144] | -0.30 | 0.40 |  |
| Cc1cc(=O)[nH]c(-n2nc(C)cc2C)n1 [MMV393995] | -1.49 | -4.16 |  |
| CCc1nc2ccc(C(=O)NCc3ccc4c(c3)OCO4)cn2c1N(C)Cc1cccs1 [MMV407539] | -0.20 | 24.66 | PGI release, % of Tx-100 control, average, 5d [1]: -1.01%; PGI release, % of Tx-100 control, average, 12d [1]: 3.14% |
| CCOc1ccccc1NC(C)C(=O)Nc1cc(C(F)(F)F)ccc1N1CCOCC1 (stereo not shown) [MMV407834] | -0.40 | -0.68 |  |
| COC(=O)c1c(NC(=O)c2c(F)c(F)c(F)c(F)c2F)sc2c1CCCCC2 [MMV461553] | 3.92 | 19.16 |  |
| CC(C)(C)c1cnc(NC(=O)c2ccccc2O)s1 [MMV495543] | -1.40 | -5.38 |  |
| CS(=O)(=O)Cc1nc2ccccc2oc1=O [MMV553002] | -3.93 | -1.57 |  |
| c1ccc(-c2cc(N3CCCCC3)c3ccccc3n2)nc1 [MMV560185] | 0.52 | -0.29 |  |
| CCN(CC)S(=O)(=O)c1ccc(C(=O)Nc2cc(C)nn2-c2nc(C)c(C)c(=O)[nH]2)cc1 [MMV595321] | -0.14 | -1.13 |  |
| CCC(Sc1nc2ccccc2o1)C(=O)Nc1nnc(C)s1 (stereo not shown) [MMV611037] | -0.81 | -1.11 |  |
| O=C(NCCN1CCCC1)c1cc(NCCN2CCOCC2)nc2ccc(Cl)cc12 [MMV634140] | 0.01 | -0.0759 |  |
| CN1CCCC1CCO[C@](C)(c1ccccc1)c1ccc(Cl)cc1 (stereo partly shown) [MMV637229] | 4.53 | 10.67 |  |

| SMILES | PGI release, % of the Tx-100 control, 5d [%] | PGI release, % of the Tx-100 control, 12d [%] | other results |
| --- | --- | --- | --- |
| O=C(Nc1ccc2c(c1)B(O)OC2)c1ccccc1C(F)(F)F [MMV652003] | 1.72 | 7.32 |  |
| Cc1nc(-c2ccccn2)nc(N(C)CCc2ccccc2)c1Cl [MMV658988] | 22.86 | 30.08 | PGI release, % of Tx-100 control, average, 5d [1]: 4.97%; PGI release, % of Tx-100 control, average, 12d [1]: 10.18% |
| Cc1nc(-c2ccccn2)nc(NCCc2ccc(S(C)(=O)=O)cc2)c1Cl [MMV658993] | -0.19 | 1.18 |  |
| Cc1nc(-c2ccccn2)nc(N2CCC(Cc3ccccc3)C2)c1Cl (stereo not shown) [MMV659004] | 11.75 | 58.47 | PGI release, % of Tx-100 control, average, 5d [1]: 2.44%; PGI release, % of Tx-100 control, average, 12d [1]: 11.08% |
| FC(F)(F)c1cc(NCCc2ccccc2)nc(-c2ccccn2)n1 [MMV659010] | 0.61 | 3.66 |  |
| Brc1cncc(-c2cc(NCCCn3ccnc3)nc(-c3ccccc3)n2)c1 [MMV661713] | -3.38 | -0.86 |  |
| Clc1cccc(C(c2ccc(CN3CCNCC3)cc2)n2ccnc2)c1 (stereo not shown) [MMV663250] | 0.31 | -0.31 |  |
| O=C(NCCN1CCCC1)c1cc(NCCCCN2CCC(F)(F)CC2)nc2ccc(Cl)cc12 [MMV667494] | -0.60 | -1.11 |  |
| Nc1ncc(-c2ccc(C(F)(F)F)nc2)cc1-c1ccc(C(F)(F)F)nc1 [MMV668727] | -0.66 | -0.51 |  |
| COc1ccc(OC)c(NCc2ccc3nc(N)nc(N)c3c2Cl)c1 [MMV675968] | -0.10 | 8.05 |  |
| CC(C)(C)c1ccc(N[C@@H]2CCCC[C@H]2NC(=O)c2ccco2)cc1 [MMV675969] | 1.02 | -2.49 |  |
| COc1ccc(-c2nn(C(C)C)c3ncnc(N)c23)cc1OC [MMV675993] | -5.16 | -3.42 |  |
| Clc1ccc(-n2cc(COc3ccnc4ccccc34)nn2)cc1 [MMV675994] | -6.67 | 46.84 | PGI release, % of Tx-100 control, average, 5d (1 µM, triplicates): -4.24%; PGI release, % of Tx-100 control, average, 12d (1 µM, triplicates): -12.79%; activity in the screen at 10 μM (confirmed in triplicates, >20% relative PGI release) (10 μM, 5 and 12 days): active; PGI release, % of Tx-100 control, average, 5d [1]: 26.02%; PGI release, % of Tx-100 control, average, 12d [1]: 73.87% |
| COc1ccc(N(CCc2cccc(C)n2)C(C)=O)cc1 [MMV675995] | 1.72 | 1.78 |  |
| COc1ccc(N(CCc2cccc(C)n2)C(=O)C2CCCCC2)cc1 [MMV675996] | 0.13 | -0.16 |  |
| N#CCN(CCCCN1CCN(c2ccc(F)cc2)CC1)C(=O)OCc1ccccc1 [MMV675997] | -0.27 | -1.46 |  |
| COc1ccc(C(=N)N)cc1-c1cn(-c2ccc(C(=N)N)cc2)nn1 [MMV675998] | -0.22 | 0.24 |  |
